According to patent US5652222A, “Selective inhibition of leukemic cell proliferation by bcr-abl antisense oligonucleotides” (Temple University-of The Commonwealth System of Higher …, priority 1993, dated 1997):

Tests used:
[1] = system: Philadelphia chromosome-positive blast cells of CML patients in blast crisis, L-6 (b2a2) type junction; assay: Colony formation of CML blast crisis patient cells expressing the b2a2 (L-6) junction; format: cell-based, human; details: for Number of Colonies, Antisense-treated: 40 μg/ml at start, 20 μg/ml 18 h later; for % Inhibition: number of colonies vs untreated
Description: Leukemia cells were obtained from the marrow of the posterior iliac crest of five CML patients in blast crisis. The cells were diluted 1:2 in Iscove's modified Dulbecco medium (IMDM) to form a cell suspension. Philadelphia chromosome-positive blast cells were isolated by Ficoll-Hypaque density gradient sedimentation to remove non-mononuclear cells. Accordingly, the bone marrow cell suspension was gently overlayed on a Histopaque density gradient (Sigma Chemical Co., St. Louis, Mo.) in a 2:1 ratio, and then spun down for 30 min. at 1500 rpm and 18° C. Cells remaining in the interface layer after centrifugation were collected using a Pasteur pipet, and washed with IMDM at 1000 rpm and […] for 10 min.
Cells plated into methyl cellulose semisolid media after 7-11 days of culture were recovered from the medium. Total RNA was isolated according to the procedure of Chomczynski et al, Anal. Biochem. 162, 156-159 (1987). The RNA ([…]) isolated from one patient having particularly exuberant cell growth was annealed with the 3' RT-PCR primer GCTTCACACC ATTCCCCATTGT (SEQ ID NO:10) complementary to 22 nucleotides of c-abl exon 2 for 30 minutes at 37° C. Following annealing of the 3' primer, the RNA was reverse transcribed with 500 units of Moloney murine leukemia virus reverse transcriptase at 37° C. for 1 hour. The reaction was stopped and the mixture diluted in 1 x Thermus aquaticus (Taq) polymerase buffer. A 5' primer, the 22 nucleotide oligomer CACAGCATTCCGCTGACCATCA (SEQ ID NO: 11) complementary to bcr exon 2 and additional c-abl exon 2 3' primer were added to a final concentration of 2 ng/μl each with 2.5 units of Taq polymerase for amplification of the cDNA fragments. Sixty cycles of PCR were performed in a Perkin Elmer Thermal Cycler by annealing at 55° C., synthesizing at 72° C. and denaturing at 95° C. The amplification product, corresponding to the b2a2 junction, was thereafter separated on a 2% agarose gel. The band containing the bcr-abl fragment was cut out and cleaned according to a standard technique utilizing a GENE-CLEAN™ kit (Bio 101, Inc.), cloned by blunt end ligation in the BLUESCRIPT SK vector (Stratagene Cloning Systems) linearized by SMA I digestion. Several individual clones were then sequenced using the SEQUENASE™ version 2.0 enzyme (United States Biochemical Corp., Cleveland, Ohio), according to the sequence protocol recommended by the manufacturer. Accordingly, the denatured bcr-abl DNA fragments were annealed with specific primers which flank the cloning site in the BLUESCRIPT SK vector, in the presence of SEQUENASE™ reaction buffer for 15 min. at 37° C. The primer-annealed fragments were incubated at room temperature with SEQUENASE™ version 2.0 enzyme and α-S^35 dAT at 37° C. Subsequently, labelled template-primer complexes were transferred to tubes containing A, T, C and G nucleotides (one nucleotide per tube) and incubated 5-30 min. at 37° C. The samples were then loaded on a previously prepared acrylamide gel, and run for approximately 10 hours. The sequencing gel was dryed, and the film exposed O/N. Sequence analysis of several of the individual clones identified the bcr-abl junction as having the cDNA sequence shown in FIG. 1 (SEQ ID NO:1). The arrow in the figure indicates the bcr-abl breakpoint junction, and the box delineates the 18 nucleotides corresponding to the junction, which forms a preferred target sequence for hybridization of antisense oligomer. The junction corresponds precisely to the L-6 type breakpoint reported by Shtivelman et al., Cell 47, 277 (1986), in which the bcr exon 2 is fused to c-abl exon 2.
In a similar manner, L-6 type junctions were identified in the remaining CML blast crisis patients by hybridization of RT-PCR amplification products derived from blast crisis CML RNA using a synthetic 18-mer GAAGGGCTTC TTCCTTAT (SEQ ID NO:3) specific for the 18-nucleotide target sequence of the L-6 bcr-abl junction. […]

bcr-abl transcripts = assay: bcr-abl transcript in residual colonies (RT-PCR); format: cell-based, human; details: colonies arising from mixed cell populations of Example 3
Description: To provide unambiguous evidence of the elimination of Philadelphia chromosome blast cells, residual cells from Example 3 were evaluated for the expression of bcr-abl transcripts, since the levels of this transcript should reflect the number of surviving leukemia cells. For this purpose, total RNA was isolated from a pool of colonies from Example 3, and the levels of bcr-abl transcripts were evaluated. Levels of β2 -microglobulin transcript were also determined as a control. The β2 -microglobulin gene is expressed independent of cell cycle.
Accordingly, bcr-abl and β2 -microglobulin transcripts were reverse-transcribed and amplified in the presence of specific primers and Taq polymerase as described by Rappollee, Science 241, 708-712 (1988). The amplification products were separated on a 2% agarose gel and transferred to a nitrocellulose filter, which was hybridized with a synthetic 40-nucleotide c-abl fragment and a 40-nucleotide β2 -microglobulin fragment and labeled with [γ-^32 P]-ATP and polynucleotide kinase. The c-abl probe recognizes the amplified 257-nucleotide sequence of FIG. 1, which contains the L-6 type bcr-abl junction. The β2 -microglobulin probe recognizes the 195-nucleotide sequence contained within 5' and 3' β2 -microglobulin primers (Id.; Suggs et al., Proc. Natl. Acad. Sci. U.S.A. 78, 6613 (1981)).

BV173 cells = assay: Survival of leukemic SCID mice; format: in vivo, SCID mice (human leukemic cells); details: treatment starting from days +7 or +21 (FIG. 12)
Description: To determine the lethal dose of BV173 cells in the SCID mice, we injected from 10^3 to 10^7 cells into the tail vein and monitored survival at various times postinjection. Mice injected with 10^7, 10^6, 10^5, or 10^4 BV173 cells died 8-10, 9-12, 13-15, or 14-22 weeks later, respectively, due to leukemia cell growth as confirmed on necroscopy. Spleen weight was about 40 times higher than that in noninjected SCID mice while liver and kidneys had numerous metastases and were enlarged 10-fold as compared to noninjected mice. Mice injected with 10^3 BV173 cells were still alive 35 weeks post implantation, and leukemia was never detected. From this study, 10^6 cells was taken as a lethal dose.
To determine whether synthetic phosphorothioate oligodeoxynucleotides targeted against the bcr-abl junction of […] cells would modify the disease process in SCID mice. SCID mice were injected with 10^6 BV173 cells. The mice then received 1 mg of sense (ATCAATAAGG AAGCCCTTCAGCG, SEQ ID NO:34) or antisense ([…] ATTGAT, SEQ ID NO:29) b2/a2 bcr-abl phosphorothioate oligodeoxynucleotides (pyrogen leven <1 Eu/mg; 0.2 ml in Iscove modified Dulbecco medium in 5-10 seconds) intravenously for each of 9 consecutive days, beginning either 7 or 21 days after introducing 10^6 BV173 cells. Control mice received the diluent (iscove's modified Dulbecco medium) only. These time points approximate distinct disease stages in humans.

In the case of “SEQ ID NO:3: synthetic 18-mer GAAGGGCTTC TTCCTTAT specific for the 18-nucleotide target sequence of the L-6 bcr-abl junction (antisense GAAGGGCTTCTTCCTTAT; chemistry not given here)”, the “colonies of blast cells formed” value ([1]; 10 days in semi-solid culture (FIG. 2)) is reported as “very few colonies, with a much smaller number of cells”, the “Number of Colonies, Antisense-treated” value ([1]; Table 1, patient 1, untreated 450 ± 64) is reported as 112 ± 18 colonies and the “Number of Colonies, Antisense-treated” value ([1]; Table 1, patient 2, untreated 324 ± 18) is reported as 62 ± 8 colonies. For the same substance, the “% Inhibition” value ([1]; Table 1, patient 3) was 90%, the “Number of Colonies, Antisense-treated” value ([1]; Table 1, patient 4, untreated 212 ± 15) was 80 ± 8 colonies and the “Number of Colonies, Antisense-treated” value ([1]; Table 1, patient 5, untreated 380 ± 16) was 70 ± 8 colonies. The “% Inhibition” value ([1]; Table 1, patient 5) was 82%, the “inhibition of colony formation” value ([1]; five L-6 type junction patients, repeated experiments) was 60 to 90% and the “bcr-abl transcript in RNA from colonies” value (bcr-abl transcripts) was “No bcr-abl transcript was detected”.

With “SEQ ID NO:34: phosphorothioate sense sequence ATCAATAAGGAAGCCCTTCAGCG (23-mer b2a2 sense) (sense ATCAATAAGGAAGCCCTTCAGCG; all phosphorothioate, sugars by position and methylation of C not given here)” the “mortality / survival outcome” value (BV173 cells) was “died with diffuse leukemia” and the “survival after i.v. injection of 10^6 BV173 cells” value (BV173 cells) was 10-13 weeks.
